Data on eight molecules can be found in ChEMBL document CHEMBL3351520, “Discovery of lesser known flavones as inhibitors of NF-κB signaling in MDA-MB-231 breast cancer cells--A SAR study” (Bioorg Med Chem Lett, 2014).

The source made the active and inactive calls. The rule behind the calls is not given here. A value given as a limit tells only on which side of the number the result lay.

Series [1] addresses T1, Nuclear factor NF-kappa-B complex (Homo sapiens) (UniProt Q00653+P19838+Q04206). The series is described as follows: Inhibition of doxorubicin-stimulated NF-kappaB signaling (unknown origin) expressed in MDA-MB-231 cells at 5 uM incubated for 16 hrs by luciferase reporter gene assay. The format is cell-based.
In series [2] the target is T1, Nuclear factor NF-kappa-B complex (Homo sapiens). The series is described as follows: Inhibition of NF-kappaB signaling in human MDA-MB-231 cells assessed as reduction in PMA-stimulated MMP9 mRNA expression at 5 uM pre-incubated for 8 hrs before PMA stimulation for 4 hrs by quantitative RT-PCR method. The series is classed as cell-based.
Series [3] shares this target. The series is described as follows: Inhibition of NF-kappaB signaling in human MDA-MB-231 cells assessed as reduction in PMA-stimulated COX2 mRNA expression at 5 uM pre-incubated for 8 hrs before PMA stimulation for 4 hrs by quantitative RT-PCR method. The series is classed as cell-based.
The target is the same in series [4]. The series is described as follows: Inhibition of non-stimulated NF-kappaB signaling (unknown origin) expressed in MDA-MB-231 cells at 5 uM incubated for 16 hrs by luciferase reporter gene assay. The series is classed as cell-based.
Series [5] has the same target. The series is described as follows: Inhibition of basal NF-kappaB signaling in human MDA-MB-231 cells assessed as reduction in COX2 mRNA expression at 25 uM by quantitative RT-PCR method relative to untreated control. The series is classed as cell-based.
The target is the same in series [6]. The series is described as follows: Inhibition of NF-kappaB signaling in human MDA-MB-231 cells assessed as reduction in PMA-stimulated MMP9 mRNA expression at 25 uM pre-incubated before PMA stimulation by quantitative RT-PCR method relative to untreated control. The format is cell-based.
Series [7] shares this target. The series is described as follows: Inhibition of NF-kappaB signaling in human MDA-MB-231 cells assessed as reduction in PMA-stimulated COX2 mRNA expression at 25 uM pre-incubated before PMA stimulation by quantitative RT-PCR method relative to untreated control. The series is classed as cell-based.
Series [8] has the same target. The series is described as follows: Inhibition of basal NF-kappaB signaling in human MDA-MB-231 cells assessed as reduction in MMP9 mRNA expression at 25 uM by quantitative RT-PCR method relative to untreated control. The series is classed as cell-based.
For series [9], the system named is MDA-MB-231. The series is described as follows: Induction apoptosis in PMA-stimulated human MDA-MB-231 cells assessed as mitochondrial disruption at 10 uM after 48 hrs by JC1 staining based fluorescence assay. The series is classed as functional, cell-based.
Series [10] addresses T1, Nuclear factor NF-kappa-B complex (Homo sapiens). The series is described as follows: Effect on NF-kappaB signaling in human MDA-MB-231 cells assessed as increase in COX2 mRNA expression at 25 uM by quantitative RT-PCR method. The series is classed as cell-based.
Series [11] has the same target. The series is described as follows: Effect on NF-kappaB signaling in human MDA-MB-231 cells assessed as increase in MMP9 mRNA expression at 25 uM by quantitative RT-PCR method. The format is cell-based.
The subject of series [12] is MDA-MB-231. The series is described as follows: Induction apoptosis in PMA-stimulated human MDA-MB-231 cells assessed as mitochondrial disruption 3.125 to 25 uM uM after 48 hrs by JC1 staining based fluorescence assay. The series is classed as functional, cell-based.
Series [13] concerns MDA-MB-231. The series is described as follows: Inhibition of cell migration of PMA-stimulated human MDA-MB-231 cells. The format is functional, cell-based.
Series [14] concerns MDA-MB-231. The series is described as follows: Induction of cell cycle arrest in un-stimulated human MDA-MB-231 cells assessed as accumulation at G2/M phase at 25 uM after 48 hrs by propidium iodide staining based flow cytometry. The series is classed as functional.
The target in series [15] is T1, Nuclear factor NF-kappa-B complex (Homo sapiens). The series is described as follows: Inhibition of NF-kappaB signaling in human MDA-MB-231 cells assessed as reduction in PMA-stimulated MMP9 protein expression at 6.25 to 50 uM pre-incubated before PMA stimulation by SDS-PAGE gelatin zymography. The series is classed as cell-based.
Series [16] deals with MDA-MB-231. The series is described as follows: Cytotoxicity against PMA-stimulated human MDA-MB-231 cells assessed as induction of cell death up to 25 uM after 48 hrs by MTT assay. The series is classed as functional.
A short description of series [17]: Toxicity against human MDA-MB-231 cells after 48 hrs by MTT assay. The series is classed as cell-based. Particulars: read-out: MNCC.
In series [18] the test system is MDA-MB-231. The series is described as follows: Induction apoptosis in PMA-stimulated human MDA-MB-231 cells assessed as mitochondrial disruption up to 50 uM uM after 48 hrs by JC1 staining based fluorescence assay. The format is functional, cell-based.
Series [19] relates to MDA-MB-231. The series is described as follows: Induction of cell cycle arrest in PMA-stimulated human MDA-MB-231 cells assessed as accumulation at G2/M phase at 25 uM after 48 hrs by propidium iodide staining based flow cytometry. The format is functional.
For series [20], the target named is T1, Nuclear factor NF-kappa-B complex (Homo sapiens). The series is described as follows: Inhibition of NF-kappaB signaling in human MDA-MB-231 cells assessed as reduction in PMA-stimulated MMP9 mRNA expression at 50 uM pre-incubated before PMA stimulation by quantitative RT-PCR method relative to untreated control. The format is cell-based.
The target is the same in series [21]. The series is described as follows: Inhibition of basal NF-kappaB signaling in human MDA-MB-231 cells assessed as reduction in MMP9 mRNA expression at 50 uM by quantitative RT-PCR method relative to untreated control. The format is cell-based.
Series [22] deals with MDA-MB-231. The series is described as follows: Cytotoxicity against PMA-stimulated human MDA-MB-231 cells assessed as induction of cell death at 50 uM after 48 hrs by MTT assay. The format is functional.
The target in series [23] is T1, Nuclear factor NF-kappa-B complex (Homo sapiens). The series is described as follows: Inhibition of NF-kappaB signaling in human MDA-MB-231 cells assessed as reduction in PMA-stimulated MMP9 mRNA expression at 12.5 uM pre-incubated before PMA stimulation by quantitative RT-PCR method relative to untreated control. The series is classed as cell-based.
The test system of series [24] is MDA-MB-231. The series is described as follows: Cytotoxicity against non-stimulated human MDA-MB-231 cells assessed as induction of cell death up to 25 uM after 48 hrs by MTT assay. The format is functional.
Series [25] addresses T1, Nuclear factor NF-kappa-B complex (Homo sapiens). The series is described as follows: Inhibition of basal NF-kappaB signaling in human MDA-MB-231 cells assessed as reduction in MMP9 mRNA expression at 12.5 uM by quantitative RT-PCR method. The format is cell-based.
For series [26] the target is unchanged. The series is described as follows: Inhibition of basal NF-kappaB signaling in human MDA-MB-231 cells assessed as reduction in MMP9 mRNA expression at 3.125 uM by quantitative RT-PCR method relative to untreated control. The series is classed as cell-based.
Series [27] deals with MDA-MB-231. The series is described as follows: Induction of cell cycle arrest in PMA-stimulated human MDA-MB-231 cells assessed as accumulation at S phase at 25 uM after 48 hrs by propidium iodide staining based flow cytometry (reference value: 29%). The series is classed as functional.
For series [28], the target named is T1, Nuclear factor NF-kappa-B complex (Homo sapiens). The series is described as follows: Inhibition of basal NF-kappaB signaling in human MDA-MB-231 cells assessed as reduction in MMP9 mRNA expression at 6.25 uM by quantitative RT-PCR method relative to untreated control. The series is classed as cell-based.
Series [29] deals with MDA-MB-231. The series is described as follows: Cytotoxicity against non-stimulated human MDA-MB-231 cells assessed as induction of cell death at 50 uM after 48 hrs by MTT assay. The format is functional.
Series [30] relates to MDA-MB-231. The series is described as follows: Inhibition of cell invasion of PMA-stimulated human MDA-MB-231 cells. The format is functional, cell-based.
Series [31] concerns MDA-MB-231. The series is described as follows: Induction of cell cycle arrest in PMA-stimulated human MDA-MB-231 cells assessed as accumulation at G1 phase at 25 uM after 48 hrs by propidium iodide staining based flow cytometry (reference value: 52%). The format is functional.
The test system of series [32] is MDA-MB-231. The series is described as follows: Induction of cell cycle arrest in PMA-stimulated human MDA-MB-231 cells assessed as accumulation at G2/M phase at 25 uM after 48 hrs by propidium iodide staining based flow cytometry (reference value: 19%). The format is functional.
In series [33] the target is T1, Nuclear factor NF-kappa-B complex (Homo sapiens). The series is described as follows: Inhibition of basal NF-kappaB signaling in human MDA-MB-231 cells assessed as reduction in MMP9 mRNA expression at 12.5 uM by quantitative RT-PCR method relative to untreated control. The format is cell-based.

T1 sequence (P19838 whole entry, looked up): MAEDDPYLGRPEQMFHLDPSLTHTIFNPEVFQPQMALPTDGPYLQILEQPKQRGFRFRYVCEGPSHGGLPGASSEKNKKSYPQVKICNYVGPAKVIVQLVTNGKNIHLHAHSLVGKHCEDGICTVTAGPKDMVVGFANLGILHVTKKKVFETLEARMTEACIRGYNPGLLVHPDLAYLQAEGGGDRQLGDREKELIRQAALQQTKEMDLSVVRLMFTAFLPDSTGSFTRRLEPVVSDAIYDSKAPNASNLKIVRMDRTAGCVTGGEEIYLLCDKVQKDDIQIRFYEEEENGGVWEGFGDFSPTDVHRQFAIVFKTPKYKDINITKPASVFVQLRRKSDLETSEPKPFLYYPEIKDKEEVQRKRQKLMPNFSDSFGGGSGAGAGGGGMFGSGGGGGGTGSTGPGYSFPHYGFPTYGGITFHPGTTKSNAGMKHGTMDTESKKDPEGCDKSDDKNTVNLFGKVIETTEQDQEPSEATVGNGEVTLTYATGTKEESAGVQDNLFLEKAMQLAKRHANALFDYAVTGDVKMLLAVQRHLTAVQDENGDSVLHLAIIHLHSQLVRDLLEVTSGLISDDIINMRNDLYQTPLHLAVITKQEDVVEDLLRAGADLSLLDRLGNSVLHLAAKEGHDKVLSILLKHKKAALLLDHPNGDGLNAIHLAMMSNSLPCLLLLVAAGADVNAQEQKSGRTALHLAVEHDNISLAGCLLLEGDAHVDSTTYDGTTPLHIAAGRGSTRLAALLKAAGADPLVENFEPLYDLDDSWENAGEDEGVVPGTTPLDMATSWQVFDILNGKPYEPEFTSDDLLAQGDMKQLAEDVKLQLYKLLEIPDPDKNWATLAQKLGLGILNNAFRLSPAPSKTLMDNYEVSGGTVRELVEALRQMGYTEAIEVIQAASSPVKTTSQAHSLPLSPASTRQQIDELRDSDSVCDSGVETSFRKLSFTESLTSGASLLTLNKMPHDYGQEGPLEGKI
T1 sequence (Q00653 whole entry, looked up): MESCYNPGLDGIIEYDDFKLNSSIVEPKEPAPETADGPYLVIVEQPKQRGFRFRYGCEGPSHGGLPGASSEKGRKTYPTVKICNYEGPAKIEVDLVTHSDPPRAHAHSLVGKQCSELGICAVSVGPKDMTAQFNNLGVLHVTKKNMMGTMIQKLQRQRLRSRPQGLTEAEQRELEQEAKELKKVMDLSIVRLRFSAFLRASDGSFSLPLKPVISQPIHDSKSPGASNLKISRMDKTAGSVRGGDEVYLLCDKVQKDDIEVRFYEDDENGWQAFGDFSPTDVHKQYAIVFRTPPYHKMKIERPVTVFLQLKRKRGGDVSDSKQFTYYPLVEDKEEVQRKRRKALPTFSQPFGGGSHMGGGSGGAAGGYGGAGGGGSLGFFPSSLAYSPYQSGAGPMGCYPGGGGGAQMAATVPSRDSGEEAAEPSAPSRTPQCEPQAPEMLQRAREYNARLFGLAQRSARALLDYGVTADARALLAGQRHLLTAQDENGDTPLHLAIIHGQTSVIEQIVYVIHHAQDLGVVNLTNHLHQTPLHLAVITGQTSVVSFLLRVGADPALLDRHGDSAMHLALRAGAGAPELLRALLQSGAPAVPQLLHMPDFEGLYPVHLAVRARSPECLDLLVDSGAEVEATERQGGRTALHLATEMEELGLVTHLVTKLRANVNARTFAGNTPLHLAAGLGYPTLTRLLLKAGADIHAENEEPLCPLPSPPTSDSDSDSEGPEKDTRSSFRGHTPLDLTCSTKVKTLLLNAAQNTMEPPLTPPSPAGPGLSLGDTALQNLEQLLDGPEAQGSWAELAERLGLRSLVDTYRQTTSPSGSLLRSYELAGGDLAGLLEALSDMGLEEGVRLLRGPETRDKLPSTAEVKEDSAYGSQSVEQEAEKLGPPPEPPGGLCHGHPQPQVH
T1 sequence (Q04206 whole entry, looked up): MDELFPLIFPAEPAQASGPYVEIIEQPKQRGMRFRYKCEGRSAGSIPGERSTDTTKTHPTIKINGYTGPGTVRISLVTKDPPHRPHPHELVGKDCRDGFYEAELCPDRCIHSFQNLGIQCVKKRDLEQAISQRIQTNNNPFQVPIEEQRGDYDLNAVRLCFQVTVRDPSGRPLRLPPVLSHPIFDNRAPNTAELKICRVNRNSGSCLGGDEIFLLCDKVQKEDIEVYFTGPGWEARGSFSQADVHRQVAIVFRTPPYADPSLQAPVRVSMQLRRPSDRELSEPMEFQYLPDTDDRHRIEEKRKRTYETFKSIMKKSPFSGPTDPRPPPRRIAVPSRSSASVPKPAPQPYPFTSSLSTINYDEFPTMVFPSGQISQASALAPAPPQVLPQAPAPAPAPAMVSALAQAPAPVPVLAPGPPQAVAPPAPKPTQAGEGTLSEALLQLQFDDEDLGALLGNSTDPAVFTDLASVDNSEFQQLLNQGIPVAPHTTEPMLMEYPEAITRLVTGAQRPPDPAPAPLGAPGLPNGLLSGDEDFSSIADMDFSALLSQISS

Turning to `C=C1C(=O)O[C@@H]2C3O[C@]3(C)CC/C=C(\C)CC[C@@H]12` (stereo partly drawn), the inhibition entry in series [1], in series [2], in [3] and in series [4] was “Active” each time.
Turning to `COc1ccc(-c2cc(=O)c3c(O)cc(O)cc3o2)cc1`, the inhibition result in series [5], in series [6], in [7] and in series [8] was “Active” in each case.
`COc1ccc(-c2cc(=O)c3c(O)cc(O)cc3o2)cc1O`: the inhibition result in series [5], in series [6], in series [7] and in series [8] was “Active” throughout.
In the case of `COc1cccc2c1C(=O)c1c(O)c3c(c(O)c1C2=O)C[C@@](O)(C(=O)CO)C[C@@H]3O[C@H]1C[C@H](N)[C@H](O)[C@H](C)O1`, the result in the series with MDA-MB-231 [9] was Active.
As for `O=c1c(O)c(-c2ccc(O)c(O)c2)oc2c(O)c(O)cc(O)c12`, the result in series [10] and in series [11] was Active.
As to `O=c1c(O)c(-c2ccc(O)c(O)c2)oc2cc(O)c(O)c(O)c12`, the outcome in series [10] and in series [11] was Active.
For the molecule `O=c1c(O)c(-c2ccc(O)c(O)c2)oc2cc(O)cc(O)c12`, the inhibition entry in series [5], in series [6], in series [7] and in [8] was “Active” in each case. In the series on MDA-MB-231 [12], the result was Active. For the same molecule, in the series on MDA-MB-231 [13], the inhibition entry is “inactive”.
For `COc1cc(-c2cc(=O)c3c(O)cc(O)cc3o2)ccc1O` [CHRYSOERIOL], the Activity entry was “Dose-dependent effect” with MDA-MB-231 [14]; less than 10% in the series on MDA-MB-231 [16]; “Dose-dependent effect” in the series on MDA-MB-231 [19]; 10% in the series on MDA-MB-231 [22]; less than 10% in the series on MDA-MB-231 [24]; 27% with MDA-MB-231 [27]. The Activity amounted to 10% in the series with MDA-MB-231 [29], 34% in the series on MDA-MB-231 [31] and 39% in the series on MDA-MB-231 [32]. For the same molecule, the inhibition result in series [5], in series [15] and in series [7] was “Active” each time. Further, the MNTC at 48 h in [17] came to 25 µM. Besides, the result in the series on MDA-MB-231 [18] was inactive. Moreover, the results for the inhibition result (in the series on MDA-MB-231 [13]; in series [25]; in the series with MDA-MB-231 [30]) were “Dose-dependent effect”, 80% and “Dose-dependent effect”, respectively. For the same molecule, the fold change (FC) in [20] amounted to 1.33; in series [21], 0.204; in [6], 2.11; in series [23], 3.67; in series [26], 0.708; in [28], 0.361. Further, the fold change (FC) was 0.211 in [8] and 0.208 in [33].
